2 compounds from patent EP4467141A1, “PYRAZOLO-QUINOLINES AS SELECTIVE INHIBITORS OF GENOTOXIC STRESS-INDUCED IKK/NF- KB PATHWAYS FOR CANCER THERAPY” (Max-Delbrück-Centrum für Molekulare Medizin in der …, priority 2023, dated 2024) can be followed below.

One assay concerns the target T1, MAPK12 (p38 gamma) (Homo sapiens, UniProt P53778).
T1 construct: purchased Thermo Fisher Scientific
T1 sequence (P53778 1-367): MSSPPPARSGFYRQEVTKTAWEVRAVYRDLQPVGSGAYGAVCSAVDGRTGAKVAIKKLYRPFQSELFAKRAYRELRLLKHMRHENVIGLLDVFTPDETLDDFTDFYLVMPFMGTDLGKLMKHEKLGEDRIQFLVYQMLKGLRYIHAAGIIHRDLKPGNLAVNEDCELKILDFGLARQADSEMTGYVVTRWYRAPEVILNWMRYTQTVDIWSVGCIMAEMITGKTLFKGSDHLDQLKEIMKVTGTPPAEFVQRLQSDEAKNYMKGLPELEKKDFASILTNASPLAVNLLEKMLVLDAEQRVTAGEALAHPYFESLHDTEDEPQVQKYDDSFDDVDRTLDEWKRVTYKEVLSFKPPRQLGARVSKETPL
The experiment in a line: Kinase panel study. In kind it is biochemical. The settings on record: read-out: Percentage of inhibition; for inhibition at 1 µM: 1000nM; for inhibition at 10 µM: 10000nM. A digest of the protocol:
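Percent inhibition of each kinase by the test compound, given at either 1 µM or 10 µM, came from a contracted panel run by ZLyte or Adapta protocol.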

In assay [1] the test system is p65 nuclear translocation. The experiment in a line: HCS counter-screen: TNFα-induced p65 nuclear translocation in U2-OS cells. The format is cell-based. The procedure:
Fig.1: Identification of inhibitors specific for DNA damage-induced NF-κB activity. (A) Flowchart representing the high-throughput chemical library screening. A screen/counter-screen strategy was used by stimulating NF-κB in U2-OS cells with etoposide (50 µM for 90 min) and hits were counter-screened with TNFα (10 ng/ml for 20 min). Cells were pre-treated with compounds (10 µM) for 1 hour before stimulation, fixed, and percent p65 nuclear translocation measured by fluorescence microscopy. IC50 values were used for final selection. (B) Comparison of mean p65 nuclear translocation following either etoposide or TNFa stimulation after treatment with each counter-screened hit compound. Values were normalized to etoposide or TNFα positive controls. Specific inhibitors (red) of DNA damage-induced NF-κB signaling were defined by setting cut-off criteria (black line). […] (E) Western blot analysis (top) and quantification (bottom) of NF-κB subunit p65 phosphorylation (S536) following 1-hour pre-treatment with DMSO, MW01 (10 µM), or MW05 (10 µM), in unstimulated, after 90 min irradiation (IR, 20 Gy), or after 20 min TNFα (10 ng/mL) conditions in U2- OS cells. […]
To identify inhibitors that selectively prevent DNA damage-induced NF-κB activation, we established a high-throughput screening platform quantifying p65 nuclear translocation, an essential step in NF-κB activation (Hayden and Ghosh, 2008). […]
Background: The purpose of a counterscreen is to sort out artefacts and off-target activity.

SMILES strings stand for the structures.

Broadly, the inhibition is the share of the control response that was lost under treatment. `COc1ccc2c(c1OC)c(=O)n1c3ccc(O)cc3c3ccnc2c31` [MW01, 5-Hydroxy-10,11-dimethoxy-9H-benzo[c]indolo[3,2,1-ij][1,5]naphthyridin-9-one]: at MAPK12 (p38 gamma), the inhibition at 1 µM was found to be 8% and the inhibition at 10 µM came out at 11%. The “TNFα stimulated IC50 of p65 nuclear translocation” value in assay [1] was “out of range”.
For the compound `COc1ccc2cc3c(N)nn(C(=O)c4cccc(N(C)C)c4)c3nc2c1` [MW05, (3-Amino-7-methoxypyrazolo[3,4-b]quinolin-1-yl)-[3-(dimethylamino)phenyl]methanone], at MAPK12 (p38 gamma), the inhibition at 1 µM turned out to be 4% and the inhibition at 10 µM worked out at 4%. The “TNFα stimulated IC50 of p65 nuclear translocation” value in assay [1] was “out of range”.
